According to patent US8273719B2, “Wrinkle-diminishing agent” (Kao Corporation, priority 2004, dated 2012):

Tested on: skin which had suffered from photoaging
Assay: Wrinkle alleviating effect on photoaged (UVA/UVB irradiated) hairless mice: wrinkle score, dermis collagen content, epidermis thickness
Format: in vivo
Excerpt: The wrinkle alleviating effect of the antiwrinkle agent of the present invention when applied to a skin which had suffered from photoaging was examined by the following test method. A group of ten hairless mice which were ten weeks old at the start of the test was used. Photoaging was caused by irradiating the mice with UVA and UVB once a day and five times per week for continuous eight weeks. A UVA dose of 20 J/cm^2 was increased to 25 J/cm^2 and then 30 J/cm^2 every week, and a UVB dose of 20 mJ/cm^2 was increased to 30 mJ/cm^2 and then 40 mJ/cm^2 every week, and the respective maximum doses were used on and after the third week. The wrinkle alleviating effect was evaluated in respect of the wrinkle score, the dermis collagen content and the epidermis thickness. […] Specifically, the wrinkles were macroscopically evaluated with respect to the size and depth and rated in 4 stages: “large and deep wrinkles can be recognized” was rated 3, “some wrinkles can be recognized” was rated 2, “any wrinkles cannot be recognized” was rated 1, and “normal and fine skin is observed” was rated 0. Whole skin was sampled and homogenized by a POLYTRON Homogenizer (manufactured by KINEMATICA AG), and then the collagen fraction was extracted and subjected to acid hydrolysis followed by quantitative determination of a hydroxyproline content using an amino acid analyzer (manufactured by JASCO Corporation). […]

Row | Structure (SMILES) | Wrinkle alleviating effect on the wrinkles caused by the photoaging (overall conclusion in words) | Epidermis thickness, effect compared to Comparative Example 1 (base only) (result in words)
1 | C=CCc1ccc(O)c(OC)c1 [eugenol] | does not have a wrinkle alleviating effect | 
2 | C=CCc1ccc(O[C@@H]2O[C@H](CO)[C@@H](O)[C@H](O)[C@H]2O)c(OC)c1 [eugenyl glycoside, eugenyl-β-D-glucoside] |  | had no such an action
